Measured values taken from patent publication US20070087976A1, “Topiramate and pharmaceutical formulations thereof” (priority 2005, published 2007).

Legend:
[1] = water absorption (sorption isotherm) at 25° C. and 90% r.h.; type: physicochemical
Method: Thus, the pure active substance absorbs less than 0.1% of water at 25° C. at 90% r.h., as indicated by the sorption isotherm shown in FIG. 1. […] The topiramate according to the invention is therefore particularly suitable for the preparation of pharmaceutical formulations. The tablet formulations according to the invention which are obtainable by direct compression absorb less moisture than commercially available tablets. […] In contrast, topiramate tablets according to the invention, as in example 1 below, absorb only 5.5% of water under the same conditions.

[2] = storage at 80° C. for one month, color changes; type: physicochemical

With `CC1(C)O[C@@H]2[C@@H](CO[C@@]3(COS(N)(=O)=O)OC(C)(C)O[C@@H]23)O1` [topiramate, 2,3:4,5-bis-O-(1-methylethylidene)-β-D-fructopyranose sulfamate] the water absorbed [1] was “less than 0.1%” and the “color changes on storage” value [2] was “no color changes”.
